According to ChEMBL document CHEMBL1201862, “PubChem BioAssay data set” (2004):
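Each compound was tested at five concentrations against cells in 96-well plates for 48 hours. Abbreviation: GI50, concentration required for 50% inhibition of growth.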 The source made the active and inactive calls. Rule as the data show it: active = GI50 up to about 1.1 µM and inactive = higher.

Legend:
Test in all cases: inhibition of tumour cell growth, NCI panel, 48 h
[1] = test system: A549
[2] = test system: HOP-62
[3] = test system: RXF 393
[4] = test system: NCI-H226
[5] = test system: SK-MEL-5
[6] = test system: UO-31
[7] = test system: HCT-116
[8] = test system: KM-20L2
[9] = test system: HOP-18
[10] = test system: LOX IMVI
[11] = test system: RXF 631
[12] = test system: SNB-19
[13] = test system: LXFL 529
[14] = test system: SK-OV-3
[15] = test system: U-251
[16] = test system: SF-295
[17] = test system: SW-620
[18] = test system: CCRF-CEM
[19] = test system: IGROV-1
[20] = test system: OVCAR-8
[21] = test system: M19-MEL
[22] = test system: 786-0
[23] = test system: M14
[24] = test system: HL-60
[25] = test system: HCC 2998
[26] = test system: UACC-62
[27] = test system: HOP-92
[28] = test system: NCI-H23
[29] = test system: SNB-78
[30] = test system: SK-MEL-2
[31] = test system: SF-539
[32] = test system: DMS-273
[33] = test system: K562
[34] = test system: HCT-15
[35] = test system: SF-268
[36] = test system: TK-10
[37] = test system: UACC-257
[38] = test system: RPMI-8226
[39] = test system: NCI-H522
[40] = test system: A498
[41] = test system: ACHN
[42] = test system: SK-MEL-28
[43] = test system: OVCAR-4
[44] = test system: OVCAR-5
[45] = test system: OVCAR-3
[46] = test system: NCI-H460
[47] = test system: DMS-114
[48] = test system: COLO 205
[49] = test system: CAKI-1
[50] = test system: EKVX
[51] = test system: DLD-1
[52] = test system: HT-29
[53] = test system: Malme-3M
[54] = test system: KM12
[55] = test system: SNB-75
[56] = test system: XF498
[57] = test system: SN12C
[58] = test system: MOLT-4
[59] = test system: SR

In the case of `NC(=O)CC(N/C=C1/N=C(c2ccccc2)OC1=O)C(=O)O` (stereo not drawn), the GI50 [1] is reported as > 100 µM (inactive), the GI50 [2] is reported as > 100 µM (inactive) and the GI50 [3] is reported as > 100 µM (inactive). For the same compound, the GI50 [4] was > 100 µM (inactive), the GI50 [5] was > 100 µM (inactive) and the GI50 [6] was > 100 µM (inactive). For the same compound, the GI50 [7] was > 100 µM (inactive), the GI50 [8] was > 100 µM (inactive) and the GI50 [9] was > 100 µM (inactive). The GI50 [10] was > 100 µM (inactive), the GI50 [11] was > 100 µM (inactive) and the GI50 [12] was > 100 µM (inactive). The GI50 [13] was > 100 µM (inactive), the GI50 [14] was > 100 µM (inactive) and the GI50 [15] was > 100 µM (inactive). For the same compound, the GI50 [16] was > 100 µM (inactive), the GI50 [17] was > 100 µM (inactive) and the GI50 [18] was > 100 µM (inactive). The GI50 [19] was > 100 µM (inactive), the GI50 [20] was > 100 µM (inactive) and the GI50 [21] was > 100 µM (inactive). The GI50 [22] was > 100 µM (inactive), the GI50 [23] was > 100 µM (inactive) and the GI50 [24] was > 100 µM (inactive). The GI50 [25] was > 100 µM (inactive), the GI50 [26] was > 100 µM (inactive) and the GI50 [27] was > 100 µM (inactive). The GI50 [28] was > 100 µM (inactive), the GI50 [29] was > 100 µM (inactive) and the GI50 [30] was > 100 µM (inactive). The GI50 [31] was > 100 µM (inactive), the GI50 [32] was > 100 µM (inactive) and the GI50 [33] was > 100 µM (inactive). For the same compound, the GI50 [34] was > 100 µM, the GI50 [35] was > 100 µM (inactive) and the GI50 [36] was > 100 µM (inactive). The GI50 [37] was > 100 µM (inactive), the GI50 [38] was > 100 µM (inactive) and the GI50 [39] was > 100 µM (inactive). The GI50 [40] was > 100 µM (inactive), the GI50 [41] was > 100 µM (inactive) and the GI50 [42] was > 100 µM (inactive). For the same compound, the GI50 [43] was > 100 µM (inactive), the GI50 [44] was > 100 µM (inactive) and the GI50 [45] was > 100 µM (inactive). For the same compound, the GI50 [46] was > 100 µM (inactive), the GI50 [47] was > 100 µM (inactive) and the GI50 [48] was > 100 µM (inactive). For the same compound, the GI50 [49] was > 100 µM (inactive), the GI50 [50] was > 100 µM (inactive) and the GI50 [51] was > 100 µM (inactive). The GI50 [52] was > 100 µM (inactive), the GI50 [53] was > 100 µM (inactive) and the GI50 [54] was > 100 µM (inactive). The GI50 [55] was > 100 µM (inactive).

`O=C1C2=C(CC3C(C2)C3(Br)Br)C(=O)C2=C1CC1C(C2)C1(Br)Br` (stereo not drawn) was tested, and the GI50 [56] was > 100 µM (inactive), the GI50 [1] was > 100 µM (inactive) and the GI50 [2] was > 100 µM (inactive). The GI50 [3] was > 100 µM (inactive), the GI50 [4] was > 100 µM (inactive) and the GI50 [5] was > 100 µM (inactive). The GI50 [6] was > 100 µM (inactive), the GI50 [7] was > 100 µM (inactive) and the GI50 [8] was > 100 µM (inactive). The GI50 [9] was > 100 µM (inactive), the GI50 [10] was 82.4 µM (inactive) and the GI50 [11] was > 100 µM (inactive). For the same compound, the GI50 [12] was > 100 µM (inactive), the GI50 [13] was > 100 µM (inactive) and the GI50 [14] was > 100 µM (inactive). The GI50 [15] was > 100 µM (inactive), the GI50 [16] was > 100 µM (inactive) and the GI50 [18] was 61.9 µM (inactive). For the same compound, the GI50 [19] was > 100 µM (inactive), the GI50 [20] was > 100 µM (inactive) and the GI50 [21] was 52.8 µM (inactive). For the same compound, the GI50 [22] was > 100 µM (inactive), the GI50 [23] was > 100 µM (inactive) and the GI50 [24] was > 100 µM (inactive). For the same compound, the GI50 [25] was > 100 µM (inactive), the GI50 [26] was > 100 µM (inactive) and the GI50 [27] was > 100 µM (inactive). The GI50 [57] was > 100 µM (inactive), the GI50 [28] was > 100 µM (inactive) and the GI50 [29] was > 100 µM (inactive). For the same compound, the GI50 [30] was > 100 µM (inactive), the GI50 [58] was > 100 µM (inactive) and the GI50 [31] was > 100 µM (inactive). The GI50 [32] was > 100 µM (inactive), the GI50 [33] was > 100 µM (inactive) and the GI50 [34] was > 100 µM. For the same compound, the GI50 [35] was > 100 µM (inactive), the GI50 [36] was > 100 µM (inactive) and the GI50 [37] was > 100 µM (inactive). For the same compound, the GI50 [59] was > 100 µM (inactive), the GI50 [39] was 34.6 µM (inactive) and the GI50 [40] was > 100 µM (inactive). The GI50 [41] was > 100 µM (inactive), the GI50 [42] was > 100 µM (inactive) and the GI50 [43] was > 100 µM (inactive). The GI50 [44] was > 100 µM (inactive), the GI50 [45] was > 100 µM (inactive) and the GI50 [46] was > 100 µM (inactive). For the same compound, the GI50 [48] was > 100 µM (inactive), the GI50 [49] was > 100 µM (inactive) and the GI50 [50] was > 100 µM (inactive). The GI50 [51] was > 100 µM (inactive), the GI50 [52] was > 100 µM (inactive) and the GI50 [53] was > 100 µM (inactive). For the same compound, the GI50 [54] was > 100 µM (inactive) and the GI50 [55] was > 100 µM (inactive).

With `Cc1ccc(NC(=O)CC/C(CC(=O)C(C)(C)C)=N/Nc2nnc(C)n2N)cc1C` the GI50 [56] was > 100 µM (inactive), the GI50 [1] was > 100 µM (inactive) and the GI50 [2] was > 100 µM (inactive). For the same compound, the GI50 [3] was > 100 µM (inactive), the GI50 [4] was > 100 µM (inactive) and the GI50 [5] was > 100 µM (inactive). The GI50 [6] was > 100 µM (inactive), the GI50 [7] was > 100 µM (inactive) and the GI50 [8] was > 100 µM (inactive). The GI50 [9] was > 100 µM (inactive), the GI50 [10] was > 100 µM (inactive) and the GI50 [11] was > 100 µM (inactive). For the same compound, the GI50 [12] was > 100 µM (inactive), the GI50 [13] was > 100 µM (inactive) and the GI50 [14] was > 100 µM (inactive). The GI50 [15] was > 100 µM (inactive), the GI50 [16] was > 100 µM (inactive) and the GI50 [17] was > 100 µM (inactive). For the same compound, the GI50 [18] was 65 µM (inactive), the GI50 [19] was > 100 µM (inactive) and the GI50 [20] was > 100 µM (inactive). The GI50 [21] was > 100 µM (inactive), the GI50 [22] was > 100 µM (inactive) and the GI50 [23] was > 100 µM (inactive). The GI50 [24] was > 100 µM (inactive), the GI50 [25] was > 100 µM (inactive) and the GI50 [26] was > 100 µM (inactive). The GI50 [27] was > 100 µM (inactive), the GI50 [57] was > 100 µM (inactive) and the GI50 [28] was > 100 µM (inactive). The GI50 [29] was > 100 µM (inactive), the GI50 [30] was > 100 µM (inactive) and the GI50 [58] was 66.5 µM (inactive). For the same compound, the GI50 [31] was > 100 µM (inactive), the GI50 [32] was 95.1 µM (inactive) and the GI50 [33] was 43 µM (inactive). For the same compound, the GI50 [34] was > 100 µM, the GI50 [35] was > 100 µM (inactive) and the GI50 [36] was > 100 µM (inactive). For the same compound, the GI50 [37] was > 100 µM (inactive), the GI50 [38] was > 100 µM (inactive) and the GI50 [59] was 94.8 µM (inactive). The GI50 [39] was > 100 µM (inactive), the GI50 [40] was > 100 µM (inactive) and the GI50 [41] was > 100 µM (inactive). For the same compound, the GI50 [42] was > 100 µM (inactive), the GI50 [44] was > 100 µM (inactive) and the GI50 [45] was > 100 µM (inactive). The GI50 [46] was > 100 µM (inactive), the GI50 [47] was 62.2 µM (inactive) and the GI50 [48] was > 100 µM (inactive). The GI50 [49] was > 100 µM (inactive), the GI50 [50] was 30.8 µM (inactive) and the GI50 [52] was > 100 µM (inactive). The GI50 [53] was > 100 µM (inactive), the GI50 [54] was 84.9 µM (inactive) and the GI50 [55] was > 100 µM (inactive).
